Measurements: US5298488A, “CM-chitin derivatives and use thereof” (Fuji Photo Film Co., Ltd., priority 1990, dated 1994)
No end group written: not given here. sulfated CM‑chitin = sulfated carboxymethyl-chitin (CM-chitin), conjugated to the peptide; succinylated CM‑Chitin = succinylated CM-chitin

What was measured:
fibronectin = experiment: Cell adhesion-inhibitory test against fibronectin (competitive assay, number of adhered cells); type: cell-based, human; settings: endothelium cells of blood vessel, 37° C., one hour, 0 mg/ml control 160
Description: (§1) A method for determining the activity of the CM-chitin derivatives of the present invention for inhibiting adhesion of cells to fibronectin or vitronectin will be described below. The competitive assays used herein have widely been employed tin the field of biochemistry and are detailed in, for instance, "Method in Enzymology", 1981, 82, pp. 803-831; and J. P. KOKAI Nos. Hei 1-309682 and Hei 2-174797.
(§2) Commercially available fibroneotin (derived from human; purchased from Seikaqaku Kogyo K. K.) and vitronectin (derived from human; purchased from Funakoshi Co., Ltd.) each was diluted to 1.0 μ1/ml and 2.0 μ1/ml with PBS (NaH2 PO4 0.005 M+NaCl 0.07 M), 0.5 ml of the resulting diluted solution was dispensed into a plastic plate having 24 wells and incubated at 37° C. overnight to perform coating of the plate. Then bovine serum albumin (BSA 1%) was added followed by incubation at 37° C. for one hour for inhibiting the occurrence of nonspecific adsorption, then washing with PBS in the usual manner and sufficient drainage to give an adsorption plate.
(§3) A CM-chitin derivative obtained through lyophilization was diluted with Dulbecco's Modified Eagles Medium (hereunder referred to as "DMEM") to give solutions of the CM-chitin derivative having concentrations of 0, 0.25, 0.5, 1.0 and 1.5 mg/ml respectively. Each of the solutions (0.25 ml) was dispensed to the plate prepared above, 0.25 ml of a suspension of endothelium cells of blood vessel (4×10^6 cells/ml) was added to the plate and incubated at 37° C. for one hour to thus cause cohesion of the cells. The plate was washed three times with DMEM medium to remove non-adhesive cells, then the adhered cells were peeled off with a 0.025% EDTA trypsin solution and stained with a 2% Trypan Blue solution to determine the number of the adhered cells.

vitronectin = experiment: Cell adhesion-inhibitory test against vitronectin (competitive assay, number of adhered cells); type: cell-based, human; settings: endothelium cells of blood vessel, 37° C., one hour, 0 control 249
Description: as §1, §2
as §3, with “A CM-chitin derivative obtained through lyophilization was diluted with Dulbecco's Modified Eagles Medium (hereunder referred to as "DMEM") to give solutions of the CM-chitin derivative having concentrations of 0, 0.25, 0.5, 1.0 and 1.5 mg/ml respectively.” left out

[1] = tested on: human plasma rich in platelet; experiment: Platelet coagulation-inhibitory activity in vitro, transmittance by aggregometer; type: cell-based; settings: 37° C., 3 minutes preincubation; for Platelet Coagulation-Inhibitory Action IC50, ADP Stimulation: ADP stimulation (50 μM ADP solution); for Platelet Coagulation-Inhibitory Action IC50, Collagen Stimulation: collagen stimulation (200 μg/ml collagen solution)
Protocol: The platelet coagulation-inhibitory effect of the CM-chitin derivative of the present invention was assayed, in vitro, using human plasma rich in platelet. The experimental method will be described below.
To fresh human blood, there was added 1/9 volume of a 3.8% sodium citrate solution, the resulting mixture was centrifuged (1000 rpm; for 10 minutes) and the upper layer was separated as a plasma rich in platelet. A lyophilized CM-chitin derivative was dissolved in physiological saline to give a plurality of solutions having various concentrations ranging from 0 to 1.5 mg/ml. Each of the solutions (25 μ1) was added to 200 µl of the plasma, incubated at 37° C. for 3 minutes, then a 50 μM of ADP (adenosine diphosphate) solution or a 200 μg/ml collagen solution was added to determine the extent of coagulation in terms of transmittance determined by an aggregometer.
Rate of Coagulation Inhibition=(1-T/T .)×100%
T . : transmittance observed when a salt of CM-chitin derivative was not added.
T : transmittance observed when a salt of CM-chitin derivative was added.

[2] = concentration 10 mg/ml (so in the source)
[3] = concentration 50 mg/ml (so in the source)
[4] = concentration 100 mg/ml (so in the source)
[5] = concentration 300 mg/ml (so in the source)

| Platelet Coagulation-Inhibitory Action IC50, ADP Stimulation [1] [µg/mL] | Platelet Coagulation-Inhibitory Action IC50, Collagen Stimulation [1] [µg/mL] | Substance | Cell Adhesion-Inhibitory effect Against Fibronectin (number of adhered cells) (fibronectin; concentration 0.5 mg/ml) [cell/well] | Cell Adhesion-Inhibitory effect Against Fibronectin (number of adhered cells) (fibronectin; concentration 1.0 mg/ml) [cell/well] | Cell Adhesion-Inhibitory effect Against Fibronectin (number of adhered cells) (fibronectin; concentration 1.5 mg/ml) [cell/well] | Cell Adhesion-Inhibitory effect Against Fibronectin (number of adhered cells) (fibronectin; concentration .25 mg/ml) [cell/well] | Cell Adhesion-Inhibitory effect Against Vitronectin (number of adhered cells) (vitronectin; [2]) [cell/well] | Cell Adhesion-Inhibitory effect Against Vitronectin (number of adhered cells) (vitronectin; [3]) [cell/well] | Cell Adhesion-Inhibitory effect Against Vitronectin (number of adhered cells) (vitronectin; [4]) [cell/well] | Cell Adhesion-Inhibitory effect Against Vitronectin (number of adhered cells) (vitronectin; [5]) [cell/well] |
| --- | --- | --- | --- | --- | --- | --- | --- | --- | --- | --- |
| 17 | 7 | Sulfated CM-Chitin-Arg-Gly-Asp-Ser ({sulfated CM‑chitin}-RGDS) [CM--chitin derivative-13] | 77 | 57 | 33 | 97 | 103 | 70 | 47 | 31 |
| 21 | 12 | Succinylated CM-Chitin-(Arg-Gly-Asp)3 ({succinylated CM‑Chitin}-RGDRGDRGD) [CM--chitin derivative-11] | 125 | 78 | 70 | 143 | 147 | 100 | 73 | 45 |
